Each structure is given as a SMILES string. Read-outs that look alike come from different tables or passages of the source.

Here are results for 18 compounds from patent EP2241555A1, “New RAC1 inhibitors as potential pharmacological agents for heart failure treatment” (UNIVERSITA' DEGLI STUDI DI MILANO, priority 2009, dated 2010).

The target in one series is T1, Rac1 (Homo sapiens, UniProt P63000).
T1 construct: endogenous in cells; host or cells: human cultured smooth muscle cells, stimulated with PDGF-BB
The experiment in a line: G-LISA assay of intracellular Rac1-GTP in PDGF-BB stimulated human smooth muscle cells. Type of series: cell-based. The settings on record: for remaining activity at 50 µM / remaining activity at 100 µM: read-out: Rac1 inhibitory activity (% vs control); for remaining activity at 100 µM: Concentration 100 µm. From the text:
The intracellular amount of Rac1-GTP has been determined using the GLISA™ assay (Cytoskeleton, Inc). The GLISA™ assay uses a 96-well plate coated with RBD domain of Rac1-family effector protein PAK1. […] A significant inhibition on Rac1 activity should decrease the intracellular levels of Rac1-GTP and therefore reduce the percentage of Rac1-GTP detected compared to control untreated cells.

The next series has as its system HL-1 cells. The experiment in a line: Apoptosis of ischemic HL-1 cardiomyocytes (TUNEL assay, flow cytometer). The series is classed as cell-based, mouse. The settings on record: 100 µM; 8 h ischemia (glucose deficient medium + hydrogen peroxide); 8h Ischemia alone 701.6, 8h Control 100. As for the experimental part:
To establish a cardiomyocytes based apoptosis assay, which mimics the post-ischemic damage observed after myocardial infarction, we have utilized a cardiac muscle cell line, HL-1 cells, derived from the AT-1 mouse atrial cardiomyocyte tumor lineage. The HL-1 cells were incubated in glucose deficient medium in the presence of hydrogen peroxide and either in presence or absence of compounds of the invention Apoptosis rate of ischemic HL-1 cells was normalised to the apoptosis rate of the 8h control cells under non-ischemic conditions, thus incubated with normal concentration of glucose in the absence of hydrogen peroxide. Both non-ischemic and ischemic HL-1 cultures were harvested after 8 hours. […] The apoptotic rates were then evaluated by TUNEL assay, a method for detecting DNA strand breaks in apoptotic cells by flow cytometer The solvent of the compounds, i.e DMSO, has no influence on the apoptosis rate. […] Effect of newly synthesized compounds with Rac1 inhibitory activity on apoptosis rate in HL-1 cells normalized to control (TUNEL-assay) The data are representative of two experiments.
Background: Flow cytometry measures light scatter and fluorescence of single cells or particles in a stream.

The next series has as its system HepG2 cells. As to the kind of experiment: Resazurine cytotoxicity assay (metabolic activity), HepG2. Type of series: cell-based, human. The settings on record: for toxic classification / MVC / EC50: HepG2, 24 h; for toxic classification: classification in words in the text; for MVC: maximal viability concentration; for Cytotoxicity-Classification: HepG2, 24 h exposure; for EC50: Homo sapiens. The procedure: (§1) For a pre-screening of the compounds they were first tested in human hepatocellular carcinoma cells (HepG2 cells)for 24 h and to gain further information about the cytotoxic potential more specific target tissues like the mouse cardiomyocytes HL-1 and primary rat cardiomyocytes were used additionally. […] The toxicity classification has been determined by using drugs currently utilized in clinic with known toxicity profile

Series [1] in a line: PAMPA (Parallel Artificial Membrane Permeability Assay). Type of series: in vitro ADME. The note with it: start concentration 250 µM, diffusion period 16 h. As for the experimental part:
(§2) The permeation characteristics of the Rac1 inhibitors were determined first in the artificial system PAMPA (Parallel Artificial Membrane Permeability Assay) which uses a membrane covered with a lipid to simulate the lipid bilayer of various cell types, including intestinal epithelium and second in vitro across Caco2, a human colon carcinoma cell line seeded as monolayers onto polycarbonate membranes. The PAMPA is able to predict the ability of a compound to permeate by a passive transcellular transport through an artificial lipid layer assembled on a membrane and also allows a classification into low (flux <20%), medium (20%≤ flux ≤70%), and high (flux >70%) absorbing substances. The Caco2 assay provides a well-established in vitro model to predict the human intestinal absorption.
The flux rate of the compounds of the invention and the reference NSC23766 was measured from a donor compartment to an acceptor compartment across the lipid layer at a start concentration of 250 µM over a diffusion period of 16 h.
A general note: PAMPA measures passive passage across an artificial lipid membrane.

Series [2] is described as follows: Caco2 monolayer permeation. The series is classed as in vitro ADME, human. The note with it: human, Caco-2, Caco2 monolayers, start concentration 50 µM. As for the experimental part: as §2
A general note: Caco-2 cells form a polarised layer with tight junctions and transporters.

In another series the test system is Caco2. As to the kind of experiment: Caco2 monolayer permeation. The series is classed as in vitro ADME, human. The note with it: Caco2 monolayers, 90 min, start concentration 50 µM. The procedure:
as §2

A further series has as its system HL-1. The experiment in a line: Resazurine cytotoxicity assay (metabolic activity), HL-1. Type of series: cell-based, mouse. As for the experimental part:
as §1

In series [3] the test system is primary rat cardiomyocytes. The experiment in a line: Resazurine cytotoxicity assay (metabolic activity), primary rat cardiomyocytes. The series is classed as cell-based. The procedure:
as §1

The mark [4] stands for this setting: Concentration 50 µm, 4 hours incubation, then PDGF-BB 10 ng/ml, Rac1-GTP detected relative to control (100), lower = more inhibition.
Where [5] appears, read: 4 hours incubation, then PDGF-BB 10 ng/ml, Rac1-GTP detected relative to control (100), lower = more inhibition.

With `Cc1cc(Nc2ccc3nc(C)cc(O)c3c2)nc(NCCc2c[nH]c3ccccc23)n1` [CWB006/02035, 6-{2-[2-(1H-Indol-3-yl)-ethylamino]-6-methyl-pyrimidin-4-ylamino}-2-methyl-quinolin-4-ol], on Rac1 (setting [4]), the remaining activity at 50 µM stood at 91.5%.
Take `CCN(CC)CCCC(C)Nc1cc(C)nc(NCCc2c[nH]c3ccc(O)cc23)n1` (centres unmarked) [CWB027/02058, 3-{2-[4-(4-diethylamino-1-methyl-butylamino)-6-methyl-pyrimidin-2-ylamino]-ethyl}-1H-indol-5-ol]: at Rac1 (setting [5]), the remaining activity at 100 µM was determined as 111%.
Same read-out and setting: with `CCN(CC)CCCCNc1nc(C)cc(NCCc2c[nH]c3ccc(O)cc23)n1` [CWB026/02057, 3-{2-[2-(4-Diethylamino-butylamino)-6-methyl-pyrimidin-4-ylamino]-ethyl}-1H-indol-5-ol] the figure was 108%.
Take `CCN(CC)CCCC(C)Nc1nc(C)cc(Nc2ccc3nc(C)cc(N)c3c2)n1` (racemic) [NSC23766, reference compound]: the “Relative rate of apoptosis normalised to control [%]” value in the series with HL-1 cells amounted to 546.5%. In addition, in the series on HepG2 cells, the toxic classification entry is “not toxic (not toxic (EC50 > 500 µM))”; the “MVC” value came out at 31.2 µM; the Cytotoxicity-Classification entry was “no (EC50 > 500 µM, (no))”; the EC50 – broadly, the concentration that produces a half-maximal response – was greater than 500 µM. For the same compound, in series [1], the PAMPA classification result is on record as “low (low (flux <20%))” and the “PAMPA flux [%] ± SD” value was 11±4%. Also, the Papp (as a rule, a coefficient for how fast a substance crosses the barrier) at 90 min, 50 µM in series [2] worked out at 2.4 ± 4.2 ×10⁻⁶ cm/s. Also, in the series with Caco2, the “Caco2 Classification” value is “medium (compounds with Papp between 1 and 10 are moderately absorbed (20 - 70%))”.
Consider `CCN(CC)CCCC(C)Nc1nccc(Nc2ccc3cc[nH]c3c2)n1` (centres unmarked) [CWB023/02053, N2-(4-Diethylamino-1-methyl-butyl)-N4-(1H-indol-6-yl)-pyrimidine-2,4-diamine], for which the remaining activity at 100 µM on Rac1 (setting [5]) worked out at 98%.
With `CCN(CC)CCCC(C)Nc1cc(C)nc(N2CCOCC2)n1` (centres unmarked) [CWB016/02046, N1,N1-Diethyl-N4-(6-methyl-2-morpholin-4-yl-pyrimidin-4-yl)-pentane-1,4-diamine], the remaining activity at 50 µM at Rac1 (setting [4]) was 93.2%.
As for `CCN(CC)CCCC(C)Nc1nc(C)cc(NCCc2c[nH]c3ccc(O)cc23)n1` (centres unmarked) [CWB025/02056, 3-{2-[2-(4-Diethylamino-1-methyl-butylamino)-6-methyl-pyrimidin-4-ylamino]-ethyl}-1H-indol-5-ol], the remaining activity at 100 µM at Rac1 (setting [5]) worked out at 123%.
Turning to `CCN(CC)CCCC(C)Nc1nc(C)cc(Nc2ccc3ncccc3c2)n1` (centres unmarked) [CWB003/01020, N2-(4-Diethylamino-1-methyl-butyl)-6-methyl-N4-quinolin-6-yl-pyrimidine-2,4-diamine], the remaining activity at 50 µM on Rac1 (setting [4]) is 93.8%.
Still for that read-out and setting: with `CCN(CC)CCCC(C)Nc1nc(C)cc(Nc2ccc3nc(C)cc(O)c3c2)n1` (centres unmarked) [CWB005/02039, 6-[2-(4-Diethylamino-1-methyl-butylamino)-6-methyl-pyrimidin-4-ylamino]-2-methyl-quinolin-4-ol] the figure was 106%.
As for `COC(=O)C(CC(C)C)Nc1cc(C)nc(Nc2ccc3ncccc3c2)n1` (centres unmarked) [CWB018/01034, 4-Methyl-2-[6-methyl-2-(quinolin-6-ylamino)-pyrimidin-4-ylamino]-pentanoic acid methyl ester], the remaining activity at 50 µM on Rac1 (setting [4]) was 34.2%. The “inhibitory action on Rac1 activity” value against Rac1 (G-LISA, 50 µM, statement in words) is given as “significant end efficient inhibitory action”. Moreover, the toxic classification result in the series on HepG2 cells is “low toxic (low toxic (100 µM < EC50 ≤ 500 µM))”. For the same compound, the “MVC” value in the series with HepG2 cells stood at 62.5 µM; with HL-1 (HL-1, 24 h, maximal viability concentration) it was 15.6 µM; in series [3] (24 h, maximal viability concentration), 31.2 µM. Also, the Cytotoxicity-Classification result is “+ (100 µM < EC50 ≤ 500, low (+))” in the series with HepG2 cells; “++ (10 µM < EC50 ≤ 100 µM, medium (++))” with HL-1 (HL-1, 24 h exposure); “++ (10 µM < EC50 ≤ 100 µM, medium (++))” in series [3] (24 h exposure). In addition, the EC50 with HepG2 cells (metabolic activity, read-out: EC50) stood at 162 µM; in the series with HL-1 (Mus musculus, HL-1, 24 h, metabolic activity), 68 µM; in series [3] (Cardiomyocyte, 24 h, metabolic activity), 85 µM. Also, the PAMPA classification entry in series [1] was “high (high (flux >70%))”. Also, the “PAMPA flux [%] ± SD” value in series [1] was 85±11%. This compound yielded a Papp at 90 min, 50 µM in series [2] of 20.5 ± 1.9 ×10⁻⁶ cm/s. Also, the “Caco2 Classification” value in the series on Caco2 is “high (compounds with a Papp >10 are predicted to be well absorbed (70 - 100%))”.
`CCN(CC)CCCC(C)Nc1nc(C)cc(N2CCCCC2)n1` (centres unmarked) [CWB008/02044, N1,N1-Diethyl-N4-(4-methyl-6-piperidin-1-yl-pyrimidin-2-yl)-pentane-1,4-diamine]: on Rac1 (setting [4]), the remaining activity at 50 µM was 95.8%.
As for `CCN(CC)CCCC(C)Nc1nccc(Oc2ccc3ccccc3c2)n1` (centres unmarked) [CWB019/01037], the “Remaining Rac1-GTP (% of control)” value at Rac1 (setting [4]) was 101.3%.
For the compound `CCN(CC)CCCC(C)Nc1nc(C)cc(Oc2ccc3nc(C)ccc3c2)n1` (centres unmarked) [CWB001/01018, N1,N1-Diethyl-N4-[4-methyl-6-(2-methyl-quinolin-6-yloxy)-pyrimidin-2-yl]-pentane-1,4-diamine], on Rac1 (setting [4]), the remaining activity at 50 µM worked out at 102%.
With `CCN(CC)CCCC(C)Nc1nc(C)cc(N2CCOCC2)n1` (centres unmarked) [CWB007/02040, N1,N1-Diethyl-N4-(4-methyl-6-morpholin-4-yl-pyrimidin-2-yl)-pentane-1,4-diamine], the remaining activity at 50 µM on Rac1 (setting [4]) turned out to be 101%.
Still for that read-out and setting: with `CCN(CC)CCCC(C)Nc1nc(C)cc(NCC(=O)O)n1` (centres unmarked) [CWB015/01031, [2-(4-Diethylamino-1-methyl-butylamino)-6-methyl-pyrimidin-4-ylamino]-acetic acid] the figure was 83.9%; with `CCN(CC)CCCNc1nc(C)cc(Oc2ccc3nc(C)ccc3c2)n1` [CWB011/01023, N,N-Diethyl-N'-[4-methyl-6-(2-methyl-quinolin-6-yloxy)-pyrimidin-2-yl]-propane-1,3-diamine], 94.8%; with `CCN(CC)CCCC(C)Nc1nc(C)cc(NCCc2c[nH]c3ccccc23)n1` (centres unmarked) [CWB002/02038, N2-(4-Diethylamino-1-methyl-butyl)-N4-[2-(1H-indol-3-yl)-ethyl)-6-methylpyrimidine-2,4-diamine], 109%.
The same measure, in the same setting: with `CCOC(=O)CNc1cc(C)nc(NC(C)CCCN(CC)CC)n1` (centres unmarked) [CWB012/01025, [2-(4-Diethylamino-1-methyl-butylamino)-6-methyl-pyrimidin-4-ylamino]-acetic acid ethyl ester] the figure was 92.9%.
